Reference: ChEMBL document CHEMBL3102693 (ACS Med Chem Lett, 2013)
Converted amounts (≈) assume the structure as drawn.

Legend:
[1] = system: Mycobacterium tuberculosis; assay: Antimicrobial activity against Mycobacterium tuberculosis H37Rv after 10 to 14 days by broth microdilution assay; format: functional
[2] = target: T1, BirA bifunctional protein (Mycobacterium tuberculosis (strain CDC 1551 / Oshkosh), UniProt P96884); assay: Inhibition of biotin binding to Mycobacterium tuberculosis BirA by isothermal titration calorimetry
T1 sequence (P96884 whole entry): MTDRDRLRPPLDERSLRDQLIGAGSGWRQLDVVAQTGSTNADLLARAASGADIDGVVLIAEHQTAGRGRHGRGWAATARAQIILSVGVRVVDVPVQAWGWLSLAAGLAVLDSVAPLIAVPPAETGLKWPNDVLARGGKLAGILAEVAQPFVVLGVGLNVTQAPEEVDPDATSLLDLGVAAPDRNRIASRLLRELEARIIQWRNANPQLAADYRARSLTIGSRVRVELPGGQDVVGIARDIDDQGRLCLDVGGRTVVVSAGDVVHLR

| SMILES | MIC90 [1] [µM] | Kd [2] [nM] |
| --- | --- | --- |
| Nc1ncnc2c1ncn2[C@@H]1O[C@H](CNS(=O)(=O)NC(=O)CCCC[C@@H]2SC[C@@H]3NC(=O)N[C@@H]32)[C@@H](O)[C@H]1O | 0.78 (≈ 0.446 µg/mL) | – |
| Nc1ncnc2c1ncn2[C@@H]1O[C@H](CCS(=O)(=O)NC(=O)CCCC[C@@H]2SC[C@@H]3NC(=O)N[C@@H]32)[C@@H](O)[C@H]1O | 3.12 (≈ 1.78 µg/mL) | 0.1 |
| Nc1nccc2c1ncn2[C@@H]1O[C@H](COS(=O)(=O)NC(=O)CCCC[C@@H]2SC[C@@H]3NC(=O)N[C@@H]32)[C@@H](O)[C@H]1O | 1.56 (≈ 0.892 µg/mL) | 0.04 |
| Nc1nc2ccccc2c2c1ncn2[C@@H]1O[C@H](COS(=O)(=O)NC(=O)CCCC[C@@H]2SC[C@@H]3NC(=O)N[C@@H]32)[C@@H](O)[C@H]1O | > 100 | 0.23 |
| CC(C)(C)C#Cc1nc(N)c2ncn([C@@H]3O[C@H](COS(=O)(=O)NC(=O)CCCC[C@@H]4SC[C@@H]5NC(=O)N[C@@H]54)[C@@H](O)[C@H]3O)c2n1 | > 100 | 11 |
